Test system: hematopoietic stem/progenitor cell engraftment
Assay: adult zebrafish whole kidney marrow competitive transplantation assay
Assay type: in vivo
Details: for engraftment signal in pilot screen of 10 bioactive compounds: by four weeks post-transplant, 10 recipients per treatment; for average G/R / percentage of positive recipients: green marrow incubated in vitro 4 hrs, mixed with red marrow 1:4, 4 wpt, compared with DMSO control; for engraftment: by 4 weeks post transplant
Description: A transparent adult zebrafish, casper, was used as a transplantation recipient. Casper is a double homozygous pigment mutant for the nacre allele (devoid of melanocytes) and the roy allele (devoid of iridophores and reduced melanoyctyes), which allows direct visualization of GFP labeled hematopoietic stem cell homing and engraftment without killing the recipients. Two marrows are used: Tg(β-actin:GFP) and Red GloFish® respectively to compete with each other at varying ratios e.g., 1:4, which can generate robust competition between the two donors. In one embodiment, the red marrow is the competitor, as well as an internal control for the transplant. At different timepoints post-transplant, the recipients are anesthetized and two pictures for each recipient are taken by a fluorescence stereomicroscope with GFP/DsRed filters individually. Images are analyzed by software, such as ImageJ, which can quantify the GFP/DsRed fluorescence intensity. The relative engraftment efficiency of the manipulated green marrow is measured by the ratio of the GFP intensity over the DsRed intensity within the same kidney region after background subtraction (labeled as G/R).
A double-color labeled competitive transplantation assay was developed, as shown by the flow chart in FIG. 1A. GFP+ and DsRed2+ marrow cells are isolated from Tg(β-actin:GFP) and commercially available Red GloFish®. The two donor populations are mixed at a certain ratio and injected into sublethally irradiated casper recipients retro-orbitally. The DsRed2+ marrow is used as the competitor. Four weeks later, the engraftment is visualized by fluorescence dissection scope. Pictures of GFP and DsRed engraftment are taken for each recipient and analyzed by ImageJ. The kidney region is manually selected and the average fluorescence intensities of both green and red are measured within the same region. The average background intensity is measured in a region outside the fish, and subtracted from the kidney intensity. The calculation of the relative engraftment is shown by the equation in FIG. 1B.
Adult zebrafish donors are anaesthetized with 0.2% tricaine before blood and kidney collection. Peripheral blood is obtained from adult casper by cardiac puncture with micropipette tips coated with heparin and collected into 0.9×PBS containing 5% FCS. About 3-5 million red blood cells are harvested from one donor. To dissect whole kidney marrow (WKM), a ventral midline incision is made on the donor fish. Whole kidney is dissected out and placed into ice-cold 0.9×PBS containing 5% FCS. Single-cell suspensions are generated by aspiration followed by filtering through a […] nylon mesh filter into a 50 ml conical tube. The flow-though part is diluted with a final volume of 25 ml and centrifuged at 1,500 rpm for 8 minutes. The supernatant is discarded and the pellet cells are resuspended in 1 ml 0.9×PBS containing 5% FCS. The number of viable cells are counted with a hemocytometer. […] Finally, the peripheral blood and kidney marrow cells are centrifuged at 1,500 rpm for 8 minutes, resuspended in 0.9×PBS containing 5% FCS and mixed at a certain ratio and concentration. Casper recipients are anesthetized in tricaine. 4 μl of the cell suspension mixture described above is injected into the circulation retro-orbitally through a Hamilton syringe (26s gauge, 10 μl volume). […] Transplanted recipients can be anesthetized in tricaine and visualized over time on a Zeiss Discovery V8 stereomicroscope with a 1.2× PlanApo lens and GFP/DsRed filters. Images are captured using AxioVision software and for each recipient, two images are taken with GFP or DsRed filter respectively. The images are all saved in .tif format and analyzed using ImageJ software.

| Compound | score in the competitive transplant model (at 3 months) | score in the competitive transplant model (at 4 weeks) | engraftment signal in pilot screen of 10 bioactive compounds | average G/R | percentage of positive recipients | engraftment (green marrow incubated in vitro with 10 μM at room temperature for 2-4 hours) | engraftment (green marrow incubated in vitro with 0.5 μM at room temperature for 2-4 hours) |
| --- | --- | --- | --- | --- | --- | --- | --- |
| CCCCC(C)(C)[C@H](O)/C=C/[C@H]1[C@H](O)CC(=O)[C@@H]1C/C=C\CCCC(=O)O [dmPGE2, 16-,16-dimethyl Prostaglandin E2] | positive | positive | enhanced signal above the rest of the chemicals tested | significantly increased | significantly increased | increase engraftment | – |
| O=C1Nc2cc(Br)ccc2C1=C1Nc2ccccc2C1=NO [BIO, 6-bromorindirubin-3′-oxime] | positive | positive | enhanced signal above the rest of the chemicals tested | significantly increased | significantly increased | – | increase engraftment |

Source: patent US10092599B2, “Methods for enhancing hematopoietic stem/progenitor cell engraftment” (CHILDREN'S MEDICAL CENTER CORPORATION, priority 2009, dated 2018)
